Measured values published in US7795290B2 (Genentech, Inc., priority 2004, dated 2010).
Blank lines part the entries; values can stand above or below the compound they belong to.

Tests used:
Test in all cases: HTS ATP-utilizing enzyme assay, off-chip mobility-shift (Caliper HTS 250)
Format in all cases: biochemical
[1] = molecular target: T1, BMX (Homo sapiens, UniProt P51813); conditions: kinase named = inhibitory activity/selectivity; test compound 10 μM; active = greater than three-sigma from mean
T1 sequence (P51813 1-675): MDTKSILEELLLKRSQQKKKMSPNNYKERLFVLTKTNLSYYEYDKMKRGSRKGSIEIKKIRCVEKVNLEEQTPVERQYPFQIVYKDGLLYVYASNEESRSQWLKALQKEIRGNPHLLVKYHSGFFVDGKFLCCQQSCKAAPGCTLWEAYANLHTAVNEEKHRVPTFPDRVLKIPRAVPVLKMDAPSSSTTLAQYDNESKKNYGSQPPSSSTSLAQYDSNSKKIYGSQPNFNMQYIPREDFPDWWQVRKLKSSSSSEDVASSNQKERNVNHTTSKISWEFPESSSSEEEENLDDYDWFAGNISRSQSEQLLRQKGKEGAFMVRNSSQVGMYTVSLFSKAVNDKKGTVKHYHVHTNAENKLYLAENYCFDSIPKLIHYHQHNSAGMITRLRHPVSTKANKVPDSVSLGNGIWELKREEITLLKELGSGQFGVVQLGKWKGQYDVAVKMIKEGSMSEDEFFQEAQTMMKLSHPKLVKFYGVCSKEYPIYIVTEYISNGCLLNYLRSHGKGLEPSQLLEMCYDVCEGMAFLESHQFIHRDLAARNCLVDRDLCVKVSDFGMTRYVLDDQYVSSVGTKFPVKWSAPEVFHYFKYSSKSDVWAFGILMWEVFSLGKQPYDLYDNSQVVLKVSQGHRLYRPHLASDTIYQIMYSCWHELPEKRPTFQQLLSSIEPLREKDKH
Method in brief: (§1)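 Single-point screen at 10 µM compound: kinase reactions ran 2.5 h at 20–22 °C and were stopped with termination buffer. Inhibition was read as the substrate-to-phosphopeptide ratio by microfluidic mobility shift, with EDTA and DMSO wells as controls. Hits were called by three-sigma limits.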

[2] = molecular target: T2, CASPASE-7 (Homo sapiens, UniProt P55210); conditions: enzyme named = inhibitory activity/selectivity; test compound 10 μM; active = greater than three-sigma from mean
T2 sequence (P55210 24-198 limits assumed): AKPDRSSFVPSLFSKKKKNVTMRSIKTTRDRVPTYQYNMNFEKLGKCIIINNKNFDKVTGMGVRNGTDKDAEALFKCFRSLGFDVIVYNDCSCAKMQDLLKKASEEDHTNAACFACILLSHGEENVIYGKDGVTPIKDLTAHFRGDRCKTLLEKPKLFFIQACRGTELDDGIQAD
T2 sequence (P55210 207-303 limits assumed): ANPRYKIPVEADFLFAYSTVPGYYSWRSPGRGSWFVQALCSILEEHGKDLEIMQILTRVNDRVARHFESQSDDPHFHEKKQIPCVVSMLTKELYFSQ
Method in brief: as §1

[3] = molecular target: CHEK2 (Homo sapiens, UniProt O96017); conditions: kinase named = inhibitory activity/selectivity; test compound 10 μM; active = greater than three-sigma from mean
Method in brief: as §1

[4] = molecular target: T3, PDK1 (Homo sapiens, UniProt O15530); conditions: kinase named = inhibitory activity/selectivity; test compound 10 μM; active = greater than three-sigma from mean
T3 sequence (O15530 1-556): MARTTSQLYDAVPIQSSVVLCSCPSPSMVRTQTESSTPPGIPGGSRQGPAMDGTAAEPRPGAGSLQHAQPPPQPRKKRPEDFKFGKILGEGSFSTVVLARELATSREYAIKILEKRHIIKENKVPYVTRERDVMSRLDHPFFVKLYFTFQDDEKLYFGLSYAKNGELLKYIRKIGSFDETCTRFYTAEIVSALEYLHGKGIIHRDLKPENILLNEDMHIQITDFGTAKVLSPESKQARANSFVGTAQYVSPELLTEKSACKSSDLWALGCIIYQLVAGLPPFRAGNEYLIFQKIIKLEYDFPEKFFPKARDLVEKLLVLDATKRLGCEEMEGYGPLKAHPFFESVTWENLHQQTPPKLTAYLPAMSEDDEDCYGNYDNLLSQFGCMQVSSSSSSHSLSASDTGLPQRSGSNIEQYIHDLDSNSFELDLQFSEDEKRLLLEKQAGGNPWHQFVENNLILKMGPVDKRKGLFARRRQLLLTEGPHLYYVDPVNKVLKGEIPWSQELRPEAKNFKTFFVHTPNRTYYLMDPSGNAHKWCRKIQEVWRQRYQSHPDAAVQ
Method in brief: as §1

[5] = molecular target: T4, ZAP70 (Homo sapiens, UniProt P43403); conditions: kinase named = inhibitory activity/selectivity; test compound 10 μM; active = greater than three-sigma from mean
T4 sequence (P43403 1-619): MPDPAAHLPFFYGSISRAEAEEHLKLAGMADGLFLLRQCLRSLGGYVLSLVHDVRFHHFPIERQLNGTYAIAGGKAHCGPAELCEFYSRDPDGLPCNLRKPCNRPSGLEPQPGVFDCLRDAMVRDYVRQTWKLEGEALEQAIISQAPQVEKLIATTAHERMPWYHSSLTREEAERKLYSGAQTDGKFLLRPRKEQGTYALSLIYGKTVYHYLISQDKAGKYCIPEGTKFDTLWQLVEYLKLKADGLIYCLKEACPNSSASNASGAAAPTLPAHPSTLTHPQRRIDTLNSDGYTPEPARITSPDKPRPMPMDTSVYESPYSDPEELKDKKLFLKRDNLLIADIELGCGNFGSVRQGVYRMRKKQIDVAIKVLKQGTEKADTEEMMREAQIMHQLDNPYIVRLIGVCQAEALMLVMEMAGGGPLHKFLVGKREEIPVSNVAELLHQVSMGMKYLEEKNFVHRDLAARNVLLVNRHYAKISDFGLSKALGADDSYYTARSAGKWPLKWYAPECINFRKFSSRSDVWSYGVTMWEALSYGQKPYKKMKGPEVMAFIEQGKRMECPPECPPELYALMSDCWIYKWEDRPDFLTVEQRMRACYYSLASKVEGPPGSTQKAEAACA
Method in brief: as §1

[6] = molecular target: T5, FLT-3 (Homo sapiens, UniProt P36888); conditions: kinase named = inhibitory activity/selectivity; test compound 10 μM; active = greater than three-sigma from mean
T5 sequence (P36888 27-993): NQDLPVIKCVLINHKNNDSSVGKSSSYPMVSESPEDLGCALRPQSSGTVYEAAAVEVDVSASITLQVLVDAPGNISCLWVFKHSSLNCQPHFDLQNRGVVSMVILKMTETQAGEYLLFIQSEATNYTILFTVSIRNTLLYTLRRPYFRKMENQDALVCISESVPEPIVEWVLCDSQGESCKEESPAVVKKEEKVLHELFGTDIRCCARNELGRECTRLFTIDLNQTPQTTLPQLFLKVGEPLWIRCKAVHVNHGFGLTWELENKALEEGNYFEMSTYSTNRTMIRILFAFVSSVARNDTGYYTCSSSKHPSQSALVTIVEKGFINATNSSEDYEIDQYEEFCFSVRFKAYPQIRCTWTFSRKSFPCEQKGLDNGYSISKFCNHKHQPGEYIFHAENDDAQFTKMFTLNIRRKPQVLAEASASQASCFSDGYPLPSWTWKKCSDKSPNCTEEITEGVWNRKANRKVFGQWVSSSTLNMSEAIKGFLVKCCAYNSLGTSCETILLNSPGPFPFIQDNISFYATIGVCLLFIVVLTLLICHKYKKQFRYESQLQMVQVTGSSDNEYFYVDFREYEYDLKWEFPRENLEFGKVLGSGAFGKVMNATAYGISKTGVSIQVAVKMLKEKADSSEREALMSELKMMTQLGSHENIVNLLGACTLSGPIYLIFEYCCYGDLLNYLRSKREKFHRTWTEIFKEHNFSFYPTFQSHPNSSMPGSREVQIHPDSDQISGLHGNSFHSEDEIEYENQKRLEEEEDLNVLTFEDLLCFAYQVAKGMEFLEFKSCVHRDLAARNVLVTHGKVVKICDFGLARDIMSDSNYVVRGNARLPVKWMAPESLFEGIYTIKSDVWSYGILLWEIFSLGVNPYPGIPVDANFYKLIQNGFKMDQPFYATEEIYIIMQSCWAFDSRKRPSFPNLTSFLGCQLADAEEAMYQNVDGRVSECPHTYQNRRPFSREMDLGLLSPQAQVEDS
Method in brief: as §1

[7] = molecular target: T6, DYRK2 (Homo sapiens, UniProt Q92630); conditions: kinase named = inhibitory activity/selectivity; test compound 10 μM; active = greater than three-sigma from mean
T6 sequence (Q92630 1-601): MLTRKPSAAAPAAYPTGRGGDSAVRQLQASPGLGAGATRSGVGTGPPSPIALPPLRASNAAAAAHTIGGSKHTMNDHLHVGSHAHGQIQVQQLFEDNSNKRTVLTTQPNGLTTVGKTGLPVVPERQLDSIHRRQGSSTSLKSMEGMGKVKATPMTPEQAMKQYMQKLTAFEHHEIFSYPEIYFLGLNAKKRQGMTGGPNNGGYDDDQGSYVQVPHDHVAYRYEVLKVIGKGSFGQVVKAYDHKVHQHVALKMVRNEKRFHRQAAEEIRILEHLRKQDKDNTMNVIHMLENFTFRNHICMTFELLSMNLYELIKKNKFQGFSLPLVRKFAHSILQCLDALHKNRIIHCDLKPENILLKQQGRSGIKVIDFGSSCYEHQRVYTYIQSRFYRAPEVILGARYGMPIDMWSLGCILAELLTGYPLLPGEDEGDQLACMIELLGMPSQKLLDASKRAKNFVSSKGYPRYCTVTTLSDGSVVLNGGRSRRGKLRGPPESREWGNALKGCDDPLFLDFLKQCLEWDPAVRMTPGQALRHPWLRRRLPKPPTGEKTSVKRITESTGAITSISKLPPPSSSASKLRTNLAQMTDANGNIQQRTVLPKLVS
Method in brief: as §1

[8] = molecular target: KIT (Homo sapiens, UniProt P10721); conditions: kinase named = inhibitory activity/selectivity; test compound 10 μM; active = greater than three-sigma from mean
Method in brief: as §1

[9] = molecular target: PDGFR-α (Homo sapiens, UniProt P16234); conditions: kinase named = inhibitory activity/selectivity; test compound 10 μM; active = greater than three-sigma from mean
Method in brief: as §1

PDGFR-α, sequence (P16234 24-1089): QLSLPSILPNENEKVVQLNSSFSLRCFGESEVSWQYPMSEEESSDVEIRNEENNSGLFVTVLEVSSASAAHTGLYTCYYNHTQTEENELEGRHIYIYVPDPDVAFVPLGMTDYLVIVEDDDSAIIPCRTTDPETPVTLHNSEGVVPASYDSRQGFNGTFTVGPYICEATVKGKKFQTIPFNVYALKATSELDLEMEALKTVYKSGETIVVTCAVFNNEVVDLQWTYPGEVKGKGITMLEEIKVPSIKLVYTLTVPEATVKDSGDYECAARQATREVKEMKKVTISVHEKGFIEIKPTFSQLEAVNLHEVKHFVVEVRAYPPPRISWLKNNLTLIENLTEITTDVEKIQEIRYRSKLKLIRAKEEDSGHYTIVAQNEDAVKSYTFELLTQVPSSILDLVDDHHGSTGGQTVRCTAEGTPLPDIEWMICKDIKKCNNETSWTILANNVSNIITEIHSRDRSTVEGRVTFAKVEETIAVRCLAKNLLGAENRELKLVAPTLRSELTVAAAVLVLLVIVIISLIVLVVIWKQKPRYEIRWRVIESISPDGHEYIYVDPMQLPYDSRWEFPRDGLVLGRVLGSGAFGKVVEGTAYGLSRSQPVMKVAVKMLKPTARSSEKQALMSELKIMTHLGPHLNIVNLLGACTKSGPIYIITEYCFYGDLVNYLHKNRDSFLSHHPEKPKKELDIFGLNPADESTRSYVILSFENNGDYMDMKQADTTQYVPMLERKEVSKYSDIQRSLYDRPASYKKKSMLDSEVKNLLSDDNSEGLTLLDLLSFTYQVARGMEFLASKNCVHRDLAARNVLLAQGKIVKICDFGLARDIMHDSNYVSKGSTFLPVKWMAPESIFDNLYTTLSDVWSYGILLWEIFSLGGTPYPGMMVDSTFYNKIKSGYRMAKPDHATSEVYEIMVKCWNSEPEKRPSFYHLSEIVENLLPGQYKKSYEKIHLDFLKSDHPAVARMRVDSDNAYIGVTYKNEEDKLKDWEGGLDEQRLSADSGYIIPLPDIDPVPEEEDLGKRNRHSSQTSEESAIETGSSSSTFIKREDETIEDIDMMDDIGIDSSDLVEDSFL
KIT, sequence (P10721 26-976): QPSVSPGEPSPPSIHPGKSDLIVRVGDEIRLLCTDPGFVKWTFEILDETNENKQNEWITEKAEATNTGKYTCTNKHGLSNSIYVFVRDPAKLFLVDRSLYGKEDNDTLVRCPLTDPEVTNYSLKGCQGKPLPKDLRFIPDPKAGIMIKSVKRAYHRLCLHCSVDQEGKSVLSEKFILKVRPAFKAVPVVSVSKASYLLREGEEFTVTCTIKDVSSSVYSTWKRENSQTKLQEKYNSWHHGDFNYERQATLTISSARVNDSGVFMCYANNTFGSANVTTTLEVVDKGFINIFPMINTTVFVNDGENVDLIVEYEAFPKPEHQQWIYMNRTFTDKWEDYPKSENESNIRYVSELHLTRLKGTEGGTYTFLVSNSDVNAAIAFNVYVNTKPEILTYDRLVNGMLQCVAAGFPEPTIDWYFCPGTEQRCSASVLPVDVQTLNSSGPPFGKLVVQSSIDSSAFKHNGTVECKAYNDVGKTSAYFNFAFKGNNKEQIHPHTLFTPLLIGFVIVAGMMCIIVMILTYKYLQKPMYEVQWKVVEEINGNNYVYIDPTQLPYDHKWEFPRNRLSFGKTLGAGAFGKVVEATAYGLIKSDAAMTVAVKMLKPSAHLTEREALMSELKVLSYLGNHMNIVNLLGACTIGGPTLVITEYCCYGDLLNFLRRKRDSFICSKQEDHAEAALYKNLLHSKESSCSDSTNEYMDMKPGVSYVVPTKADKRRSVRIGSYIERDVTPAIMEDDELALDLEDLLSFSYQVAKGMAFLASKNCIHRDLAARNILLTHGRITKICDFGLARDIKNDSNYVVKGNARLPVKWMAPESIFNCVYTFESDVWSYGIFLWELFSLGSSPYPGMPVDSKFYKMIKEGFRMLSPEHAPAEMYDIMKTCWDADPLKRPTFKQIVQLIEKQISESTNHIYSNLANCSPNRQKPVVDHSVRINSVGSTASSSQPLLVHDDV
CHEK2, sequence (O96017 whole entry): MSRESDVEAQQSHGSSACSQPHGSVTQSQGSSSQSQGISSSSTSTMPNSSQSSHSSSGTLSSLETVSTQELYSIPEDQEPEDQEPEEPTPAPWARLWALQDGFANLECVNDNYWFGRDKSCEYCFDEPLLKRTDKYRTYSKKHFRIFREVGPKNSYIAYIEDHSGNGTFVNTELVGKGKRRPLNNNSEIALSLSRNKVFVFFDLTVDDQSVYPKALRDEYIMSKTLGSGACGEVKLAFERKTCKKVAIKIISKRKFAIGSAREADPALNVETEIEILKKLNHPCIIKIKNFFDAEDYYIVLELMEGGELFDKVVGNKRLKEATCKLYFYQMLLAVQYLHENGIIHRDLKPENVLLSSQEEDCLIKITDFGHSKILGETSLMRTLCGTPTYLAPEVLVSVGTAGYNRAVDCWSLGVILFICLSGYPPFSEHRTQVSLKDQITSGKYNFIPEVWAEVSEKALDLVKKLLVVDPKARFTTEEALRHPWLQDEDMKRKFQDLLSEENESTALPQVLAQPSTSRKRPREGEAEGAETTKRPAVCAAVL

Activity [1]: BMX
SMILES: COc1ccc(-c2csc(N(CCCN3CCOCC3)C(=O)Cc3ccccc3Cl)n2)cc1 [2-(2-chlorophenyl)-N-(4-(4-methoxyphenyl)thiazol-2-yl)-N-(3-morpholinopropyl)acetamide]

Activity [2]: CASPASE-7 | Activity [3]: CHEK2
SMILES: COc1ccc(OC)c(-c2csc(N(CCCN(C)C)C(=O)c3ccccc3)n2)c1 [N-(4-(2,5-dimethoxyphenyl)thiazol-2-yl)-N-(3-(dimethylamino)propyl)benzamide]

Activity [4]: PDK1
SMILES: COc1ccc(-c2csc(N(CCCN3CCOCC3)C(=O)c3sc(C)nc3C)n2)cc1 [N-(4-(4-methoxyphenyl)thiazol-2-yl)-2,4-dimethyl-N-(3-morpholinopropyl)thiazole-5-carboxamide]

Activity [5]: ZAP70 | Activity [6]: FLT-3 | Activity [7]: DYRK2 | Activity [8]: KIT | Activity [9]: PDGFR-α
SMILES: COc1ccc(-c2csc(N(CCCN3CCOCC3)C(=O)c3snnc3C)n2)cc1 [N-(4-(4-methoxyphenyl)thiazol-2-yl)-4-methyl-N-(3-morpholinopropyl)-1,2,3-thiadiazole-5-carboxamide]
